Data on 1 compound can be found in paper PMC5641330, “Prediction of a Therapeutic Dose for Buagafuran, a Potent Anxiolytic Agent by Physiologically Based Pharmacokinetic/Pharmacodynamic Modeling Starting from Pharmacokinetics in Rats and Human” (Frontiers in Pharmacology, 2017).

The Cmax is the highest concentration seen after dosing.

Where two headings read alike, the source gives them in different places.

The nature of one series: Caco-2 transport study. More on the design: Caco-2 Papp: unit not given here. Particulars: human, Caco-2 monolayer. In kind it is in vitro ADME. Here is the method: (§1) Caco-2 Cells from passage 38 were applied to the transport experiments. Cells were seeded on polycarbonate filters (12 mm diameter, pore size 0.4 μm). The cell monolayers were used 21 days post seeding. Buagafuran was dissolved in DMSO. It was further diluted to 50 μM with HBSS. The final buagafuran concentration was 50 μM. For absorptive (AP→BL) permeability test, drug solution (0.4 mL) was added to the apical chamber. For secretive (BL→AP) permeability experiments, drug solution (0.6 mL) was added to the basolateral chamber, then 50 μL samples (n = 3) were withdrawn from receiver chamber at specified times and 50 μL fresh buffer was added in the receiver chamber. The experiments were carried out in triplicate at 4 time points.
(§2) Transport of buagafuran was tested using a linear model. The regression line was validated by inspection with naked eye and the value of correlation coefficient was R > 0.9. The apparent permeability coefficient (Papp) was calculated by the formula Papp = (ΔQ/Δt)/ACo, where ΔQ/Δt is the transport rate (nmol/s), which remained approximately constant in time, A is the well membrane area (0.6 cm^2), and Co is the initial concentration of buagafuran (μM). The efflux rate (ER) was the ratio of the Papp from the basolateral to apical cells versus the Papp from the apical to basolateral cells. Transport of the tested drug is linear over the incubation times of 30–120 min.
On the technique in general: Caco-2 monolayers are a common model of the intestinal barrier.

The subject of a further series is Caco-2 cells. Briefly: Caco-2 transport study. The format is in vitro ADME. The settings on record: PBPK input parameter; 50 μM. More on the design: Caco-2 Papp: unit not given here. Here is the method:
as §1, §2

A short description of series [1]: Plasma PK in the rat after oral dosing (observed). The format is in vivo, male Wistar rats. The settings on record: male, Wistar; for AUC(0-t): read-out: AUC0-t Observed; for AUC(0-inf): read-out: AUC0-∞ Observed; for MRT inf: read-out: MRT(0-∞) Observed. An excerpt:
Animal Care and Welfare Committee of Institute of Materia Medica, Chinese Academy of Medical Sciences approved all animal protocols (1 Xian nong tan Street, Xicheng District, Beijing, China; Permission Number: SYXK 2014-0023, Expiration: 06 Aug, 2019). All animal programs are in compliance with the Guide for the Care and Use of Laboratory Animals issued by Beijing Association on Laboratory Animal Care (BALAC). Buagafuran formulation of PVP was suspended in deionized water and was orally administered at 4 or 8 mg/kg to male Wistar rats (weighing 180–200 g). Brain samples treated with the dose of 4 mg/kg and blood samples of both treatments were collected over 3 h. Plasma samples were obtained by centrifugation, and brain tissues were homogenized in a threefold volume (w/v) of saline. Buagafuran concentrations in plasma and brain samples were quantitated by an LC-MS/MS method ([Yang et al., 2011]).
A volume of 200 μL plasma or tissue homogenate was mixed with 100 μL IS (10 ng/mL) followed by addition of 2 mL hexane. After vortexing for 2 min, the mixture was centrifuged for 5 min at 3000 g. The extracted solution was combined and evaporated to dryness at 25°C. The residues were reconstituted in 80 μL of 80% methanol. The chromatographic separation and mass spectrometric analysis was performed on a LC/TSQ Quantum Access mass spectrometer (Thermo Finnigan, San Jose, CA, United States). Ten microliter of the sample was injected onto an Agilent Eclipse Plus C18 analytical column (3.5 μm, 50 mm × 2.1 mm) and then buagafuran and IS were eluted with a gradient of acetonitrile (phase B) and water containing 0.1% v/v formic acid (phase A). The elution program was applied as follows: 50% B for 0–0.5 min, 50% B→97% B for 0.6–5.5 min, 50% B for 5.6–7.6 min. The outlet of the column was detected in positive ionization electrospray mode with selected reaction monitoring. The monitored transitions of buagafuran and IS were m/z 245→105 and 500→142, respectively. The retention time (RT) of buagafuran was 6.13 min. The linear range of the calibration curve was 0.5–800 ng/mL.
Pharmacokinetic parameters were determined with a non-compartmental model using WinNonlin v 6.0 (Pharsight Corporation, Mountain View, CA, United States). The area under the compound concentration versus time curve from time zero to the last time point (AUC0-t) and extrapolated to infinity (AUC0-∞) and the peak plasma concentration (Cmax) were calculated.

Details of series [2]: method as in Chen X. et al., 2013. The settings on record: clinical data; ref Chen X. et al., 2013; cited from earlier work.

Take `CCCCC1=CCC[C@@]2(C)CC[C@@H]3C[C@]12OC3(C)C` [buagafuran]: the Papp A→B at 50 μM in “Caco-2 transport study” (read-out: apparent permeability coefficient (AP to BL)) turned out to be 195 ×10⁻⁶ cm/s. The Papp B→A at 50 μM in the series “Caco-2 transport study” (read-out: apparent permeability coefficient (BL to AP)) came to 438 ×10⁻⁶ cm/s. Moreover, the “Caco-2 Papp” value with Caco-2 cells is 19.5 × 10^-5. Moreover, in series [1] (oral 4 mg/kg), the concentration peaked (Cmax) at 5.31 ng/mL, the AUC(0-t) was found to be 6.69 ng·h/mL, the AUC(0-inf) turned out to be 11.4 ng·h/mL and the MRT inf is 212 min. Further, the Tmax in series [1] (oral 4 mg/kg, read-out: Tmax Observed) turned out to be 15 min. For the same compound, in series [1] (oral 8 mg/kg), the Cmax stood at 10.6 ng/mL, the AUC(0-t) came to 14.2 ng·h/mL, the AUC(0-inf) turned out to be 15.1 ng·h/mL and the MRT inf was found to be 72.6 min. Also, in series [1] (single oral dosing 4 and 8 mg/kg, read-out: time of peak plasma concentration (converted)), the Tmax is 15 min. Further, the “urine excretion of the dose administered” value in series [2] is listed as “less than 1%”.
